Assay results reported in patent US20070224150A1, “Growth factor for hair and skin treatment” (priority 2005, published 2007).

Tested on: HACAT cells
Assay: HACAT cell proliferation, MTT bioassay
Assay type: cell-based
Protocol: HACAT cells were seeded in 96 well plates and cultured for one day in DMEM medium with 10% FBS, then subjected to starvation for one day. After starvation, the cells were treated for three days with various dosages of EGF in serum free media. […] The ED50 was approximately 300 pg/ml.
HACAT cells were seeded in 96 well plates and cultured for one day in DMEM medium with 10% FBS, then subjected to starvation for one day. After starvation, the cells were treated for three days with various dosages of Anti-Aging Cytokine Complex AC (“AC ”), i.e. a mixture comprising EGF, bFGF, IGF-1 and TRX, in serum free media.
FIG. 3A depicts control cells, FIG. 3B cells treated with 0.5 ng/ml EGF, and FIG. 3C cells treated with 0.5 ng/ml of AC.

“EGF: epidermal growth factor, composed of 53 amino acids” was tested, and the “ED50 (cell proliferation)” value (starved one day, treated three days in serum free media) was “approximately 300 pg/ml” and the “cell proliferation ratio versus untreated controls” value (three days, serum free media) was “higher cell proliferation ratios than the untreated controls”.
